From the supplement of paper PMC5770543
± gives the standard deviation.

Columns and labels:
[1] = system: Toxoplasma gondii RH tachyzoites; test: % growth inhibition vs DMSO (48 h luciferase); higher = more inhibition; settings: 10 µM;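 note: tested in triplicate wells of 96-well plates on confluent HFF monolayers, with 1% DMSO wells as negative control in four replicates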
[2] = system: Plasmodium falciparum 3D7; test: EC50 growth inhibition (60 h, SYBR Green); settings: stage: ring-stage start
[3] = system: Plasmodium falciparum 3D7; test: % inhibition of schizont-to-ring transition vs DMSO; higher = more inhibition
Outline: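 Schizont-to-ring transition inhibition compares new ring formation with that in vehicle controls. Synchronised P. falciparum schizonts (about 40–42 hours post-invasion, 1% parasitemia, 2.5% hematocrit, AlbuMAX-supplemented RPMI) were exposed to 1, 3 or 10 µM compound, after which rings were counted by Hoechst 33342 flow cytometry across three experiments.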

Compound	% growth inhibition [1] [%]	EC50 growth inhibition [2] [nM]	% inhibition of schizont-to-ring transition ([3]; 1 µM) [%]	% inhibition of schizont-to-ring transition ([3]; 3 µM) [%]	% inhibition of schizont-to-ring transition ([3]; 10 µM) [%]
CCCCCC(=O)N1c2ccccc2N=C2CC(c3ccc(OC)c(OC)c3)CC(O)=C2C1c1ccc(C(F)(F)F)cc1 (stereo not drawn)	60.4 ± 3	205	47.1	59.5	73.2
O=C(CCc1ccccc1)c1ccccc1OCC(O)CN1CCCCC1 (stereo not drawn)	66.1 ± 15	912	19	44.6	73.3
CN(N=O)C1=C(NC2CCCCC2)C(=O)c2ccccc2C1=O	57.2 ± 5.8	1520	33.3	57.9	65.4
CN1CCN(c2c3c(c(C#N)c4nc5ccccc5n24)CCC3)CC1	39.4 ± 4.5	–	< 0	5.66	21.3
CCCc1c(C)nc2ccc(Br)cc2c1O	39.6 ± 25	4280	17	24	44.8
CC(C)(C)CC(C)(C)NCC(O)COc1ccc2c(c1)CCC2 (stereo not drawn)	61.6 ± 1.5	4380	17.3	26.1	47.6
COc1ccc(/C=C2/SC(=Nc3ccccc3)NC2=O)cc1	22.4 ± 12	9090	10.4	23	53
CCOC(=O)c1cnc2ccc(CC)cc2c1O	78.7 ± 3.3	482	49.9	61.3	62.8
CN(C)c1ccc(-c2nc3cc(N)ccc3[nH]2)cc1	40.4 ± 8.4	3020	5.79	18.4	66.7
Nc1ccc(-c2nc3cc(Cc4ccc5[nH]c(-c6ccc(N)cc6)nc5c4)ccc3[nH]2)cc1	59.1 ± 11	218	51.3	70.1	76
CCN(CC)CCCNc1ccnc2cc3ccccc3cc12	29.2 ± 27	312	19.5	41.2	42.7
COc1cccc(C(=O)Nc2ccc(-c3nc4ccccc4[nH]3)cc2)c1	53.9 ± 1.5	1620	3.81	12.6	34.9
CCOC(=O)c1cnc2ccc(OC)cc2c1Nc1ccc(N2CCN(C)CC2)cc1	24.9 ± 43	2980	46.5	63.7	78.1
CCN(CC)CCNc1ncnc2c1[nH]c1ccc(Cl)cc12	23.3 ± 2.6	230	16.1	52	66.5
O=C(Nc1ccc(-c2nc3cc(NC(=O)c4ccc(Cl)cc4)ccc3[nH]2)cc1)c1ccc(Cl)cc1	21.6 ± 3	–	< 0	18.9	41.1
CCOC(=O)c1c(C)n(-c2ccc(Cl)cc2)c2ccc(OC(=O)C=Cc3ccccc3)cc12	69.3 ± 5	1020	5	7.44	21.6
CCOC(=O)c1ccc2nc(-c3ccccc3)cc(O)c2c1	72.2 ± 6	195	20.2	29.4	44.6
O=C(NCc1ccco1)C1CCN(S(=O)(=O)c2ccc(Br)cc2)CC1	52.8 ± 11	397	14.5	30.4	54.8
FC(F)(F)c1cccc(Nc2nc(-c3ccccc3)nc3ncccc23)c1	51.1 ± 1.4	–	24.9	33.8	42.3
Oc1c(CN2CCN(c3ccccc3F)CC2)cc(Br)c2cccnc12	74.2 ± 13	7420	7.79	26.8	49.7
Cc1ccc(N2C(=O)C3C(C2=O)C2(c4ccccc4)C(=O)C3(c3ccccc3)C(c3ccccc3)=C2c2ccccc2)cc1 (stereo not drawn)	55.5 ± 9.4	4250	< 0	< 0	24.4
CCOc1cccc2sc(N(Cc3cccnc3)C(=O)C3CCCCC3)nc12	29.9 ± 10	4280	35.3	38.9	56.6
CCC(C)NCC(O)(c1ccc(Cl)cc1)c1ccc(Cl)cc1 (stereo not drawn)	74.6 ± 8.3	632	38.4	57	63.8
O=C(Nc1ccc(-c2nc3cc4ccccc4cc3[nH]2)cc1)c1cccc(Br)c1	50.3 ± 8.7	4310	10.2	38.5	61.9
Cc1ccc2c(C)nc(Nc3nc(C)cc(-c4ccccc4)n3)nc2c1	70.4 ± 25	6670	17.7	37.8	55.7
COc1ccccc1CNC(=O)CCn1c(=O)[nH]c2ccccc2c1=O	79.9 ± 5.7	663	8.85	11.5	18.6

Compound	% growth inhibition [1] [%]	EC50 growth inhibition [2] [nM]	% inhibition of schizont-to-ring transition ([3]; 1 µM) [%]	% inhibition of schizont-to-ring transition ([3]; 3 µM) [%]	% inhibition of schizont-to-ring transition ([3]; 10 µM) [%]
Cc1ccc(C)c(Cn2c(N3CCC(C(=O)NCc4cccs4)CC3)nc3ccccc32)c1	79.1 ± 1.9	6140	18.6	69.7	68.4
Cc1cccc(-n2ncc3c(O)nc(-n4nc(C)cc4NC(=O)c4cc5ccccc5o4)nc32)c1	30.2 ± 52	–	16.7	23.7	27.8
COc1cc2cc(C(=O)Nc3ccccc3)c(N)nc2cc1OC	78.1 ± 1.2	847	8.51	35.6	57.9
CC(C)(C)c1ccc(C(=O)Nc2c3c(nn2-c2cccc(Cl)c2)CSC3)cc1	46.7 ± 4.1	–	15.4	19.9	32.6
Fc1ccc2[nH]c3c(NCCCN4CCOCC4)ncnc3c2c1	34.5 ± 17	466	3.9	32.7	53.9
CCOc1cc2c(cc1OCC)C(c1cc(Cl)ccc1O)NCC2 (stereo not drawn)	46.8 ± 4.8	1800	3.63	17.7	64.1
O=C(NC1CCCC1)c1ccc(N2CCC(NCc3cccc(C(F)(F)F)c3)CC2)cc1	74.7 ± 1.2	2010	0.815	7.92	41.6
CC1CN(C(=O)c2sc3ccccc3c2Cl)CC(C)O1 (stereo not drawn)	74 ± 3.4	29.1	15.7	21.4	24.2
Cc1cc(NCCN2CCCCC2)c2ccc3ccccc3c2n1	78.3 ± 6.7	123	46.4	52.1	69.7
CCOc1ccc2c(c1)CN(Cc1ccc(Cl)cc1)CO2	24.6 ± 13	3960	< 0	11.2	31.5
CC(=O)c1sc(NC(=O)Nc2ccc(C)cc2C)nc1C	67.5 ± 3.4	1780	10.5	30.8	49.7
COc1ccc(C2=C(c3ccc(OC)cc3)C3(c4ccccc4)C(=O)C2(c2ccccc2)C2C(=O)N(c4ccc(C)cc4)C(=O)C23)cc1 (stereo not drawn)	41.5 ± 7.4	–	< 0	< 0	24.9
CC1CC(C)CN(C(=O)c2ccc(Cl)cc2Cl)C1 (stereo not drawn)	31.6 ± 5	1020	< 0	< 0	13.8
O=C(CCl)NCCOc1ccc(Cl)cc1Cl	66.2 ± 5.8	717	12.1	24.7	43.1
c1ccc(Cn2c(N=Nc3c(Nc4ccccc4)ccc4ccccc34)nc3ccccc32)cc1	29.1 ± 12	3520	14.6	25.9	52.2
COc1cc(SC)ccc1C(=O)N1CCCC(C)C1 (stereo not drawn)	33.1 ± 4.9	3240	0.295	< 0	12.1
Cc1ccc(-c2cc3c(SCC(=O)Nc4cc(C(F)(F)F)ccc4Cl)nccn3n2)cc1	48.6 ± 19	2140	23.9	24.5	30.8
COc1ccc2nc(N)nc(C)c2c1	41.7 ± 16	–	2.26	6.22	17.5
CCC(c1ccccc1)c1nn2c(-c3cccs3)nnc2s1 (stereo not drawn)	67.1 ± 4.9	147	48.6	60	65.8
CCOC(=O)C1=C(C)N=c2sc(=Cc3cc(Cl)ccc3O)c(=O)n2C1c1ccc(OC)cc1 (stereo not drawn)	59.4 ± 6.4	–	0.526	46.2	61.3
O=C(Nc1ccccc1O)c1ccc(-c2ccc(Cl)cc2Cl)o1	23.8 ± 5.9	1670	28.6	26.9	48
Cc1ccc(OCCCCCCNCCO)c(C)c1	76.2 ± 4.2	2870	6.39	6.91	13.8
N=c1c2ccccc2nnn1-c1cccc(C(F)(F)F)c1	64.1 ± 4.6	5760	44.5	48.1	54.3
N#Cc1nc(Cc2cccc3ccccc23)oc1N1CCN(C(c2ccccc2)c2ccccc2)CC1	44.8 ± 8.8	5260	21.5	27.3	52.8
COc1ccc(CNC(=O)c2cc3c(=O)n4ccccc4nc3n(CCc3ccccc3)c2=N)cc1	56.9 ± 14	2650	9.38	17.6	47
COc1cc2c3cc1Oc1c(OC)c(OC)cc4c1C(Cc1ccc(O)c(c1)Oc1ccc(cc1)CC3N(C)CC2)N(C)CC4 (stereo not drawn)	51.7 ± 6.6	1360	0.0123	3.67	27.2

Compound	% growth inhibition [1] [%]	EC50 growth inhibition [2] [nM]	% inhibition of schizont-to-ring transition ([3]; 1 µM) [%]	% inhibition of schizont-to-ring transition ([3]; 3 µM) [%]	% inhibition of schizont-to-ring transition ([3]; 10 µM) [%]
Cc1ccc2cc3c(N)c4c(C)ccc(C)c4nc3nc2c1	56.3 ± 6.5	432	29	72.1	79.8
CC(C)(C)c1ccc2c(c1)CN(Cc1ccc(Cl)cc1)CO2	34.1 ± 8.2	1120	16.8	49.9	66.2
CN(C)CCNc1cc(-c2ccccc2)nc2ccccc12	66.7 ± 1.5	936	6.36	21.7	63.2
CCCCOC(=O)c1ccc(Nc2cc(C)nc3ccc(OC)cc23)cc1	69 ± 12	248	29	59.5	65.9
CCCc1c(CC)c(=N)c2ccccc2n1C	38.7 ± 9.2	6030	7.3	8.61	31
CC1CCCCN1CCCNC(=O)c1ccc2c(c1)sc1nc(-c3ccc(F)cc3)cn12 (stereo not drawn)	48.7 ± 9.3	400	15.8	61.1	73.1
Oc1c2c(nc3cc(-c4ccccc4)nn13)CCCC2	26.5 ± 12	3790	0.423	6.47	21.9
CCOc1ccc(Nc2ccnc3cc(Cl)ccc23)cc1	64.1 ± 7.2	3740	23.3	27.2	30
CCOc1c(Cl)cc(CNCC(O)c2ccccc2)cc1OC (stereo not drawn)	21.7 ± 8.2	956	11.2	15.1	50.5
c1ccc2cc3c(Nc4ccc(N5CCOCC5)cc4)ccnc3cc2c1	60.2 ± 14	2510	36.9	52.5	60.8
O=C(Nc1ccc(C23CC4CC(CC(c5ccccc5)(C4)C2)C3)cc1)c1cccs1	76.8 ± 7.4	7300	17.5	21.8	42.3
CCCn1c(=N)c(C(=O)NC2CCCCC2)cc2c(=O)n3cccc(C)c3nc21	71.06 ± 0.62	3810	1.41	20.4	53.1
COC(=O)c1ccc(C2C3=C(O)CC(c4ccc(F)cc4)CC3=Nc3ccccc3N2C(=O)c2ccccc2)cc1 (stereo not drawn)	61.3 ± 10	6360	35.1	51.7	56
CCN(CC)CCNc1ccnc2cc(Cl)ccc12	45.2 ± 3.8	21.1	73.3	75.3	77.3
Cc1ccc(-c2cc3c(nn2)-c2ccccc2C3=O)cc1	< 0	214	33.1	51.8	59.3
CCOC(=O)c1cnc2c(C)cccc2c1Nc1ccc(C(C)=O)cc1	79.3 ± 2.5	550	28.3	45.9	51.5
O=C(Nc1nc(-c2ccccn2)cs1)c1ccccc1Br	98.44 ± 0.08	2160	11	13.5	34.1
CCOC(=O)c1cnc2c(C)cc(C)cc2c1Nc1ccc(OC)c(OC)c1	54.2 ± 2.2	6690	14.7	32.9	45.1
O=C(NNc1cc(N2CCCC2)nc(N2CCCC2)n1)c1ccccc1	27.4 ± 0.88	6540	16.2	24.6	62.1
O=C(c1ccccc1F)N(Cc1ccc(Cl)cc1)c1ccccn1	82.2 ± 3.3	5700	2.8	7.52	13.9
CCC(=O)Nc1nnc(Cc2ccc(OC)c(OC)c2)s1	56.6 ± 7.6	–	4.3	5.07	13.6
CCCCc1ccc(NS(=O)(=O)c2cc3c4c(c2)CCN4C(=O)CC3)cc1	36.5 ± 32	–	12	12.8	34.4
Cc1ccccc1OCCSc1nc2ccc(NC(=O)c3ccccc3)cc2s1	29.6 ± 11	–	32	33	43.1
COc1ccc(C(=O)NC(c2ccc(Cl)cc2Cl)c2cc(Cl)c3cccnc3c2O)cc1 (stereo not drawn)	32.1 ± 5.2	–	19.2	19.5	25.5
